Patent US11957684B2, “Treatment of heavy menstrual bleeding associated with uterine fibroids” (Sumitomo Pharma Switzerland GmbH, priority 2016, dated 2024)

What was measured:
Type in all cases: in vivo, human
endometriosis = experiment: Example 7 12-week study in endometriosis: efficacy (VAS, B&B, EHP-30); details: for Physician B&B, dysmenorrhea / Physician B&B, dyspareunia / Physician B&B, non-menstrual pelvic pain / change from baseline in EHP-30, Control and powerlessness / change from baseline in EHP-30, Self-image / change from baseline in EHP-30, emotional well-being / change from baseline in EHP-30, pain / change from baseline in EHP-30, social support: Week 12; for Modified (patient) B&B, deep dyspareunia / Modified (patient) B&B, dysmenorrhea / Modified (patient) B&B, non-menstrual pelvic pain / change from baseline in proportion of days with usage of analgesics: end of treatment
Protocol: Secondary endpoints included VAS score for pelvic pain, dysmenorrhea, and dyspareunia during the treatment period. […] Subjects recorded in the patient diary every day until the end of treatment. […] Designated examinations and evaluations were performed at each visit. As used in the examples, the VAS score was evaluated using a 100 mm scale. For pain intensity, the scale was anchored by “no pain” (score of 0) and “pain as bad as you can imagine” (score of 100). […] The above items were evaluated using a patient diary that was distributed by the sponsor. Subjects filled out the patient diary every day during the treatment period or until early termination. If taking prohibited analgesics, subjects recorded this fact in the patient diary along with the accompanying pain symptoms before use of analgesics. As used in the examples, pain during menstruation and pelvic pain unrelated to menstruation were evaluated using scores on the M-B&B and B&B. The M-B&B scores were recorded by subjects on the patient diary supplied by the sponsor. Subjects filled out the patient diary every day during the treatment period or until early termination. If taking prohibited analgesics, subjects recorded this fact in the patient diary along with the accompanying pain symptoms before use of analgesics. The investigator or subinvestigator assessed each patient's pain through interviews and filled out a B&B once a month. The items that were assessed are shown below. The M-B&B score included: dysmenorrhea (severe, moderate, mild, no pain, or no menstruation); pelvic pain (severe, moderate, mild, or no pain); deep dyspareunia (severe, moderate, mild, no pain, or no intercourse). The B&B score included: dysmenorrhea (severe, moderate, mild, none, or not applicable); dyspareunia (severe, moderate, mild, none, or not applicable); pelvic pain (severe, moderate, mild, or none); pelvic tenderness (severe, moderate, mild, or none); and induration (severe, moderate, mild, or none). As used in the examples, the EHP-30 score was obtained by subjects assessing and recording their own QOL using the EHP-30 questionnaire.

women with endometriosis = experiment: Example 7: bone mineral density and serum hormones; details: for percent change of bone mineral density from baseline: 12 wk
From the text: Subjects were diagnosed with endometriosis within the 5 years before screening and had dysmenorrhea and pelvic pain, of which either 1 or both was at least “moderate” as determined by the investigator using the Biberoglu & Behrman (B&B) scale. […] Secondary endpoints included VAS score for pelvic pain, dysmenorrhea, and dyspareunia during the treatment period.

[1] = tested on: LH, FSH, estradiol (E2), progesterone (P), CA125; experiment: Example 8A: serum LH, FSH, E2, P and CA125; details: Week 24
From the text: Study participants were premenopausal (≥20 years) Japanese women with endometriosis (EM)-associated pain who completed a preceding 12-week study and were eligible to continue for an additional 12-week treatment were enrolled. The participants has confirmed normal regular menstrual cycles (25 to 38 days per cycle) and diagnosed to have EM and EM-related dysmenorrhea and pelvic pain of at least moderate severity as determined by the physician B&B scale. The primary endpoint was the safety including assessment of change in bone mineral density (BMD) using dual energy x-ray absorptiometry, adverse events, vital signs, weight, 12-lead electrocardiograms, and clinical laboratory tests. […] Baseline characteristics were similar between randomized patients and all patients who entered the extension study.

With CONC(=O)Nc1ccc(-c2sc3c(c2CN(C)C)c(=O)n(-c2ccc(OC)nn2)c(=O)n3Cc2c(F)cccc2F)cc1 [Compound 1, N-(4-(1-(2,6-difluorobenzyl)-5-((dimethylamino)methyl)-3-(6-methoxy-3-pyridazinyl)-2,4-dioxo-1,2,3,4-tetrahydrothieno[2,3-d]pyrimidin-6-yl)phenyl)-N′-methoxyurea] the “Physician B&B, dysmenorrhea” value (endometriosis; 10 mg) was −1.0, the “Physician B&B, dyspareunia” value (endometriosis; 10 mg) was −0.2 and the “Physician B&B, non-menstrual pelvic pain” value (endometriosis; 10 mg) was −0.6. For the same molecule, the “change from baseline in EHP-30, Control and powerlessness” value (from here on “change … Control and powerlessness”) (endometriosis; 10 mg) was −13.7, the “change from baseline in EHP-30, Self-image” value (“change … Self-image” for short) (endometriosis; 10 mg) was −5.5 and the “change from baseline in EHP-30, emotional well-being” value (from here on “change … emotional well-being”) (endometriosis; 10 mg) was −8.3. The “change from baseline in EHP-30, pain” value (endometriosis; 10 mg) was −18.3, the “change from baseline in EHP-30, social support” value (“change … social support” below) (endometriosis; 10 mg) was −6.6 and the “change from baseline in mean VAS score, pelvic pain” value (“change from baseline … pelvic pain” for short) (endometriosis; 10 mg, end of 12-wk treatment period) was −6.168±9.1411 mm. The “Modified (patient) B&B, deep dyspareunia” value (endometriosis; 10 mg) was −0.08, the “Modified (patient) B&B, dysmenorrhea” value (endometriosis; 10 mg) was −0.48 and the “Modified (patient) B&B, non-menstrual pelvic pain” value (endometriosis; 10 mg) was −0.21. For the same molecule, the “change from baseline in proportion of days with usage of analgesics” value (shortened to “change from baseline in proportion”) (endometriosis; 10 mg) was −6.6, the “Physician B&B, dysmenorrhea” value (endometriosis; 20 mg) was −1.5 and the “Physician B&B, dyspareunia” value (endometriosis; 20 mg) was −0.2. The “Physician B&B, non-menstrual pelvic pain” value (endometriosis; 20 mg) was −0.8, the “change … Control and powerlessness” value (endometriosis; 20 mg) was −14.6 and the “change … Self-image” value (endometriosis; 20 mg) was −6.3. The “change … emotional well-being” value (endometriosis; 20 mg) was −8.9, the “change from baseline in EHP-30, pain” value (endometriosis; 20 mg) was −17.8 and the “change … social support” value (endometriosis; 20 mg) was −8.4. The “change from baseline … pelvic pain” value (endometriosis; 20 mg, end of 12-wk treatment period) was −8.070±13.3707 mm, the “Modified (patient) B&B, deep dyspareunia” value (endometriosis; 20 mg) was −0.10 and the “Modified (patient) B&B, dysmenorrhea” value (endometriosis; 20 mg) was −0.76. For the same molecule, the “Modified (patient) B&B, non-menstrual pelvic pain” value (endometriosis; 20 mg) was −0.22, the “change from baseline in proportion” value (endometriosis; 20 mg) was −6.3 and the “change from baseline … pelvic pain” value (endometriosis; 40 mg, Day 1-28) was −3.761 mm. The “change from baseline … pelvic pain” value (endometriosis; 40 mg, Day 29-56) was −8.960±9.8226 mm, the “change from baseline … pelvic pain” value (endometriosis; 40 mg, Day 57-84) was −10.464±11.0995 mm and the “Physician B&B, dysmenorrhea” value (endometriosis; 40 mg) was −2.0. The “Physician B&B, dyspareunia” value (endometriosis; 40 mg) was −0.1, the “Physician B&B, non-menstrual pelvic pain” value (endometriosis; 40 mg) was −0.9 and the “change … Control and powerlessness” value (endometriosis; 40 mg) was −17.2. The “change … Self-image” value (endometriosis; 40 mg) was −8.4, the “change … emotional well-being” value (endometriosis; 40 mg) was −10.4 and the “change from baseline in EHP-30, pain” value (endometriosis; 40 mg) was −25.3. For the same molecule, the “change … social support” value (endometriosis; 40 mg) was −6.8, the “change from baseline … pelvic pain” value (endometriosis; 40 mg, end of 12-wk treatment period) was −10.418±11.0171 mm and the “Modified (patient) B&B, deep dyspareunia” value (endometriosis; 40 mg) was −0.07. For the same molecule, the “Modified (patient) B&B, dysmenorrhea” value (endometriosis; 40 mg) was −1.16, the “Modified (patient) B&B, non-menstrual pelvic pain” value (endometriosis; 40 mg) was −0.33 and the “change from baseline in proportion” value (endometriosis; 40 mg) was −10.1. For the same molecule, the “percent change of bone mineral density from baseline” value (from here on “percent change”) (women with endometriosis; 10 mg) was −0.95±1.875%, the “percent change” value (women with endometriosis; 20 mg) was −1.34±2.087% and the “percent change” value (women with endometriosis; 40 mg) was −2.08±2.220%. The “week from which median serum estradiol was below LLQ” value (women with endometriosis; Compound 1 40 mg, leuprolide acetate 3.75 mg/4 wk) was 2 Week, the “median change in serum E2 from baseline” value ([1]; 10 mg) was 1.0 pg/mL and the “median change in serum FSH from baseline” value ([1]; 10 mg) was −0.630 mIU/mL. The “median change in serum LH from baseline” value ([1]; 10 mg) was 0.300 mIU/mL, the “median change in serum progesterone (P) from baseline” value ([1]; 10 mg) was 0.000 ng/mL and the “subjects with CA125 less than or equal to 35 U/mL” value ([1]; 10 mg) was 75.3%. For the same molecule, the “median change in serum E2 from baseline” value ([1]; 20 mg) was -9.0 pg/mL, the “median change in serum FSH from baseline” value ([1]; 20 mg) was −0.990 mIU/mL and the “median change in serum LH from baseline” value ([1]; 20 mg) was −0.785 mIU/mL. The “median change in serum progesterone (P) from baseline” value ([1]; 20 mg) was 0.005 ng/mL, the “subjects with CA125 less than or equal to 35 U/mL” value ([1]; 20 mg) was 81.1% and the “median change in serum E2 from baseline” value ([1]; 40 mg) was -39.0 pg/mL. For the same molecule, the “median change in serum FSH from baseline” value ([1]; 40 mg) was −3.550 mIU/mL.
